Results taken from patent EP4613274A1, “SENOLYTIC COMPOUNDS” (Freie Universität Berlin, priority 2024, dated 2025).

Experiments:
[1] = tested on: A549; experiment: Virus-induced senescence (VIS) model, dye exclusion viability test; type: cell-based, human; details: lentivirus MOI = 50, POG-4 for 22 h
Procedure: VIS: The human alveolar epithelial adenocarcinom cell line A549 as well as VIS-deficient VeroB4 cells were infected with a high-titer GFP-expressing lentivirus (pCDH-CMV-MCS-EF1-GFP; MOI = 50) to induce VIS.
(§1) All cells were analyzed at day 10 after start of the treatment and oncogene induction, respectively. Shown in grey in the first (left) column are mean percentages of senescence-associated beta-galactosidase (SA-β-gal)-)positive cells for each treatment. Proliferating cells and their senescent counterpart were exposed to the same increasing concentrations of POG (from left to right: murine Eµ-myc lymphoma cells and primary mouse fibroblasts = 0, 0.2, 0.4, 0.8, and 1.2 µM) POG, for VIS and RS = 0, 2, 3, 4, and 5 µM) POG, and for all others = 0, 1, 2, 3, and 4 µM) POG) for 22 h before measuring their viabilities using a dye exclusion test.
The adenocarcinomic alveolar epithelial cell line A549 as well as VIS-deficient VeroB4 cells were infected with a high-titer GFP-expressing lentivirus (pCDH-CMV-MCS-EF1-GFP; multiplicity of infection [MOI] = 50). At day 6, the cells were stained for SA-β-gal before treating them with increasing concentrations of POG-4. After 22 h, the cell viability was measured using a dye exclusion test. Figure 12 illustrates means ± SD.

[2] = tested on: Primary mouse fibroblasts (MEF); experiment: NMU-induced transformation of MEF, soft-agar colony formation; type: cell-based; details: 2 mM NMU for 5 weeks, POG-4 1.0 µM, 10 weeks in 0.3 % soft-agar
Procedure: Primary mouse fibroblasts (MEF) were treated for 5 weeks with 2 mM N-nitroso-N-methylurea (NMU) or solvent to mutagenize their genomes. Selective killing of senescent subpopulation was assessed by measuring the percentage of SA-β-gal positive cells after POG-4 exposure (1.0 µM for 22 h). […] 2 × 10^4 of viable NMU-pre-treated MEF with or without subsequent POG-4 exposure (1.0 µM) from the experiment of Figure 9A were seeded in 0.3 % soft-agar and cultivated for 10 weeks, before formation of colonies (>50 cells/colony) was quantified. Again, means ± SD are illustrated POG-mediated senolysis of DMBA-induced OIS cells was tested; the results are depicted in Figure 10. Like NMU, 7,12-dimethyl-benzoanthracen (DMBA) is known to induce oncogenic mutations across all Ras isoforms. MEF were mutagenized with DMBA (0.25 µg/ml) for 7 days before cells were exposed to increasing concentrations of POG 1 week later. Cell viabilities were measured 22 h later using a dye exclusion assay (right; (Ghost Dye Red 780, 13-0865-T500, Tonbo). SA-β-gal stainings (left) were performed 2 days after POG exposure. Filled circles denote experiments conducted with solvent; filled squares denote experiments conducted with DMBA.

[3] = tested on: C57/BL6 mice; experiment: NMU-induced tumorigenesis in vivo (T-cell lymphoma development); details: 30 mg NMU/kg i.p. for 5 weeks, POG-4 2 × 0.25 mg kg^-1 i.v. within one week, monitored 300 d; p = 0.0258
Procedure: The interference of POG-4 with NMU-induced tumorigenesis was established in vivo (Figure 11). For this purpose, 30 days old C57/BL6 mice were mutagenized for 5 consecutive weeks with 30 mg NMU/kg bodyweight (b.w.) intraperitoneally (i.p.) prior to treatment with POG-4 (2 × 0.25 mg kg^-1 body weight intravenously (i.v.) injected within one week) or solvent, respectively. The mice were subsequently monitored for 300 d and T-cell lymphoma development was plotted as the time between first NMU treatment and tumor manifestation in a Kaplan Meier format. Log-rank [Mantel-Cox] test was used to compare solvent- and POG-treated cohorts.

[4] = tested on: Primary mouse embryo fibroblasts (MEF); experiment: Viability of rotenone-treated MEF with raised cellular NADH (dye exclusion assay); type: cell-based; details: 500 nM rotenone 2 h prior to POG exposure (1 µM), viability 22 h later
Procedure: Increasing cellular NADH levels sensitizes cells towards POG-mediated killing in a H2O2-dependent fashion. Primary mouse embryo fibroblasts (MEF) were stably transduced with a catalase-overexpressing retrovirus or empty virus and exposed to 500 nM rotenone (an NADH dehydrogenase inhibitor used to increase cellular NADH levels via inhibition of the mitochondrial complex I) 2 h prior to POG exposure (1 µM) before measuring cell viabilities 22 h later using a dye exclusion assay (Ghost Dye Red 780, 13-0865-T500, Tonbo). Figure 5 illustrates the results in form of means ± standard deviation (SD).

[5] = tested on: hydrogen peroxide; experiment: Europium-tetracycline (EuTc) fluorescence assay for hydrogen peroxide generation; type: biochemical
Description: For a confirmation of the POG redox cycling, hydrogen peroxide formed by peroxygenin from elemental oxygen was quantified. For this purpose, a fluorescence-based europium tetracycline assay in 3-(N-morpholino)propanesulfonic acid (MOPS) buffer at pH 6.9, close to the physiological pH, was adapted for monitoring of hydrogen peroxide released from POG-4 (Wolfbeis et al., 2002; Dürkop et al., 2005; Wu et al., 2005; Schrenkhammer et al., 2007) Reportedly, this assay is based on the formation of an quaternary pentagonal bipyramidal Eu(III)-tetracycline (Tc) complex of the stoichiometry Eu2Tc2 (Karthikeyan et al., 2004) in which one equivalent of hydrogen peroxide forms a bridged peroxide complex (µ-H2O2 ligand) (Dehaen et al. 2009) and upon excitation at 405 nm fluoresces at 616 nm. First, the sensitivity of the assay toward hydrogen peroxide was investigated. For that, different hydrogen peroxide concentrations, ranging from 10 µM to 1000 µM, were used to analyze the fluorescence signal (Figures 2A and 2B, curves 6 to 14 and 26 to 34; curves 6 and 26:1000 µM, curves 7 and 27: 800 µM, curves 8 and 28: 400 µM, curves 9 and 29: 200 µM, curves 10 and 30: 100 µM, curves 11 and 31: 50 µM, curves 12 and 32: 25 µM, curves 13 and 33: 10 µM, curves 14 and […]).
Next, the same assay conditions were applied to quantify hydrogen peroxide formation from POG-4 (V3) (referred to in the following simply as POG-4) having the following formula: [drawing 142] […]
Protocol: The assay was performed in cuvettes with a base area of 1 cm x 1 cm. Measurement of fluorescence intensity was carried out with a fluorescence spectrometer FP-6500 by Jasco at λem = 616 nm (λex = 405 nm). […]
H2O2 calibration: DTT (10 µL, 200 mM; 1mM final concentration) were added to Eu2Tc2 (2 mL) solution in a cuvette and equilibrated by stirring for 5 min at 37 °C until the fluorescence signal was constant. […] All measurements were repeated three times and a mean was calculated. […]

[6] = tested on: Eµ-myc;Bcl2 lymphoma cells; experiment: 22-hours cytotoxicity assay (dye exclusion) in therapy-induced senescence (TIS) model; type: cell-based, murine; details: ADR 0.02 µg/ml for 10 d; for senolytic activity in senescent cells protected by expression of catalase: catalase overexpression, POG for 22 h
Procedure: TIS: Eµ-myc;Bcl2 lymphoma cells (with or without catalase overexpression) and senescence-/p53-deficient Eµ-myc; Bcl2 lymphoma cells were treated with ADR (0.02 µg/ml) or solvent.
as §1
Viability of solvent-treated cells were set to 100% for each treatment and viabilities of POG-treated cells were normalized relative to solvent-treated controls.
The senescent state was documented by specific measurement of increased SA-β-galactosidase activity. […] Eµ-myc;Bcl2 lymphoma cells (with or without ectopic catalase overexpression, introduced via stable retroviral gene transfer) and senescence-/p53-deficient Eµ-myc;Bcl2 lymphoma cells were treated with ADR (0.02 µg/ml) or solvent for 10 d. Proliferating cells and their senescent counterpart were exposed to the same increasing concentrations of POG for 22 h before measuring their viabilities using a dye exclusion test (Ghost Dye Red 780, 13-0865-T500, Tonbo). Viability of solvent-treated cells were set to 100% for each treatment and viabilities of POG-treated cells were normalized relative to solvent-treated controls.

[7] = tested on: Liver cell preparations; experiment: Ex vivo treatment of liver cell preparations (SA-β-gal, TUNEL, DAPI staining); type: cell-based, C57/BL6 mice; details: old (20-months old) mice, ex vivo 22 h, POG 1.5 µM
Procedure: Liver cell preparations from young (10-weeks old) and old (20-months old) C57/BL6 mice were treated ex vivo for 22 h with POG (1.5 µM) or solvent. Cells were fixed and stained for SA-β-gal, TUNEL (Terminal deoxynucleotidyl transferase dUTP nick end labeling) and DAPI (4',6-diamidino-2-phenylindole). Percentage of senescent (SA-β-gal-positive) cells present in the viable (TUNEL-negative) liver cell population (Figure 8A) and overall viability of the liver cell population (Figure 8B) was quantified via fluorescence microscopy.

[8] = tested on: C57/BL6 mice; experiment: Rotarod performance test in aged mice; type: in vivo; details: 10-months old mice, 0.25 mg/kg body weight i.v. twice every fortnight, rotarod one month later, versus solvent
Procedure: To quantify the global impact of POG on age-related physical decline, a rotarod performance test was conducted, which captures the time mice can run on a rotating rod before falling off due to exhaustion.
For the experiments, the results of which are shown in Figure 7A, C57/BL6 mice (10-months old, "old mice") were treated twice with POG (0.25 mg/kg body weight, i.v. injected every fortnight; n = 11) or solvent (n = 11), before their physical performance was assessed using a rotarod device one month later (from 4 to 40 rpm in 180 s; acceleration rate: 0.2 rpm/s). For comparison a cohort of untreated young mice (8-weeks old; n = 10) was measured in parallel. Each datapoint represents the maximum time the (previously trained) animal was able to remain on the rotating rod from 5 consecutive runs per mouse.

[9] = tested on: Eµ-myc transgenic lymphomas; experiment: Overall survival of CTX-treated lymphoma-bearing mice with sequential POG exposure; type: in vivo; details: CTX 1 × 300 mg/kg i.p. then POG 2 × 0.25 mg/kg i.v.
Procedure: The inventors also analyzed the impact of a sequential POG exposure on overall survival in chemotherapy-exposed mice bearing senescence-capable vs. senescence-incapable lymphomas. […] In essence, POG treatment led to reduction of senescent cells in vivo, and extended healthy lifespan of aged and anticancer-treated mice.
CTX treatment: 1 × 300 mg/kg body weight via i.p., POG treatment: 2 × 0.25 mg/kg body weight via the i.v. application route. Figure 7B illustrates means ± SD, wherein an unpaired two-tailed Student's t test was done for statistical analysis (*P < 0.05).

**Q.** Which “senolytic activity against virus-induced senescence” value [1] does the source give for `Cn1nc(/C=C/c2ccccc2)nc2c(=O)n(C)c(=O)nc1-2` [POG-4, (E)-1,6-Dimethyl-3-styrylpyrimido[5,4-e][1,2,4]triazine-5,7(1H,6H)-dione] here?
**A.** The value was “exhibit senolytic activity”.

**Q.** And the “NMU-induced transformation (soft-agar colonies)” value [2]?
**A.** Its value is “ablates NMU-induced transformation”.

**Q.** What about the “NMU-induced tumorigenesis (time to tumor manifestation)” value [3] of the same molecule?
**A.** The value was “interferes with NMU-induced tumorigenesis in vivo”.

**Q.** And the “dependence of activity on cellular NADH levels” value [4]?
**A.** Its value is “relied on increased levels of the reducing equivalent (NADH)”.

**Q.** And the “time at which the maximum concentration was reached” value ([5]; 5 µM POG-4, 1 mM NADH)?
**A.** Its value is “approximately 120 minutes”.

**Q.** What about the “hydrogen peroxide concentration in dependence on NADH concentration” value ([5]; POG 1 µM, NADH 0.1 mM to 5 mM) of the same molecule?
**A.** Its value is “higher hydrogen peroxide concentration”.

**Q.** What about the “generation of H2O2 (fluorescence)” value ([5]; POG-4 0.1 to 5 µM with 1 mM NADH, MOPS buffer pH 6.9, time frame of 300 min) of the same molecule?
**A.** Its value is “continuous generation of H2O2”.

**Q.** What about the “sensitivity of senescent cells versus non-senescent tumor cells (viability)” value ([6]; then POG for 22 h) of the same molecule?
**A.** The value was “significantly more sensitive”.

**Q.** What about the “senolytic activity in senescent cells protected by expression of catalase” value [6] of the same molecule?
**A.** Its value is “did not exhibit senolytic activity”.

**Q.** What about the “senolytic activity in senescent cells protected by expression of catalase” value ([6]; listed as POG) of the same molecule?
**A.** The value was “lack sensitivity”.

**Q.** And the “percentage of senescent liver cells” value [7]?
**A.** Its value is “decreased significantly”.

**Q.** And the “running time on rotating rod” value [8]?
**A.** The value was “significantly extended the running time”.

**Q.** And the overall survival ([9]; senescence-capable p53+/+ Eµ-myc lymphomas, versus DMSO, P = 0.0282)?
**A.** The overall survival was “lived significantly longer”.

**Q.** What about the overall survival ([9]; senescence-incapable Eµ-myc;p53-null lymphomas, P > 0.05) of the same molecule?
**A.** Its overall survival is “failed to realize such benefit”.
